{
  "source": "patent US10246483B2",
  "about": "“Bile acid analogs as FXR/TGR5 agonists and methods of use thereof” (ENANTA PHARMACEUTICALS, INC., priority 2015, dated 2019)",
  "molecular_target": "T1, human FXR (NR1H4) (Homo sapiens, UniProt Q96RI1)",
  "T1 construct": "host or cells: CHO (Chinese hamster ovary) reporter cells",
  "T1 sequence (Q96RI1 1-486)": "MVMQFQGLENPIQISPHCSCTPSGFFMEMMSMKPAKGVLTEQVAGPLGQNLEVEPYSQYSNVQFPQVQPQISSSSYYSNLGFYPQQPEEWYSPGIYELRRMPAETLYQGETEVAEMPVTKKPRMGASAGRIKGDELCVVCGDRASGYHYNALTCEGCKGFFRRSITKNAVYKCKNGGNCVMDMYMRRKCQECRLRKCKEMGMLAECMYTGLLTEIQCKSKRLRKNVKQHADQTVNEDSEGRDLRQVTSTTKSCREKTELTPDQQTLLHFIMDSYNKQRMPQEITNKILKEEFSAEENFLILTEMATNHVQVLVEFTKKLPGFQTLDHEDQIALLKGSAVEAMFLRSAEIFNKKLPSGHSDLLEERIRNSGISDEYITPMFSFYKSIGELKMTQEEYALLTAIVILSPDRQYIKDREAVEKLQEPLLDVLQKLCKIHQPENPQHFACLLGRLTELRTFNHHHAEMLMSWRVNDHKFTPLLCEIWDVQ",
  "assay": "Human FXR (NR1H4) reporter assay (Gal4 promoter driven transactivation, luciferase)",
  "type": "cell-based",
  "text": "Human FXR (NR1H4) Assay Determination of a ligand mediated Gal4 promoter driven transactivation to quantify ligand binding mediated activation of FXR. FXR Reporter Assay kit purchased from Indigo Bioscience (Catalogue number: IB00601) to determine the potency and efficacy of compound developed by Enanta that can induce FXR activation. The principle application of this reporter assay system is to quantify functional activity of human FXR. The assay utilizes non-human mammalian cells, CHO (Chinese hamster ovary) cells engineered to express human NR1H4 protein (referred to as FXR). Reporter cells also incorporate the cDNA encoding beetle luciferase which catalyzes the substrates and yields photon emission. Luminescence intensity of the reaction is quantified using a plate-reading luminometer, Envision. […] Thus, quantifying changes in luciferase expression in the treated reporter cells provides a sensitive surrogate measure of the changes in FXR activity. […] Thirty minutes before intending to quantify FXR activity, remove Detection Substrate and Detection Buffer from the refrigerator and place them in a low-light area so that they may equilibrate to room temperature. […] Set the instrument (Envision) to perform a single 5 second “plate shake” prior to reading the first assay well. Read time may be 0.5 second (500 mSec) per well.",
  "data": [
    {"smiles": "CC[C@@H]1C2C[C@H](O)CCC2(C)[C@H]2CCC3(C)C([C@H](C)CCC(=O)NC(=N)Nc4ccccc4)CC[C@H]3[C@@H]2[C@@H]1O", "note": "(some centres unmarked) [Example 1]", "values": [
      {"measurement": "EC50", "result": "100 to 1000", "unit": "nM"},
      {"measurement": "Efficacy (%)", "setting": "CHO reporter cells expressing human NR1H4, normalized to CDCA set as 100%", "result": 248, "unit": "%"}
    ]}
  ]
}
